According to patent US20220175717A1, “PHENPROCOUMON TTS” (LTS LOHMANN THERAPIE-SYSTEME AG, priority 2019, published 2022):

What was measured:
[1] = Saturation concentration Cs of phenprocoumon in polymer matrices (sandwich method of Liu); format: physicochemical; conditions: for Cs of phenprocoumon: 7 days at room temperature
Method: The saturation concentration Cs of phenprocoumon was determined in various polymer matrices according to the method of Liu (Liu, P., Gargiulo, P., Wong, J., and Novartis (1997). A Novel Method for Measuring Solubility of a Drug in an Adhesive. Pharmaceutical Research 14, p. 317). In this method, known among experts as the “sandwich” method, the saturation concentration is determined as follows: A laminate is built up with the following sequence of layers: protective film—donor layer with active substance (dissolved and undissolved)—active-substance-permeable membrane—acceptor layer without active substance—protective film. The two protective films consist of identical material; the matrix material of the donor layer and acceptor layer is also identical. The donor layer is prepared by dissolving the active substance in a solution of the polymer in organic solvent. In this process, the concentration of the active substance must be chosen to be high enough that an undissolved residue is visible in the polymer matrix, so that the saturation concentration Cs in the donor layer is safely exceeded. This solution is spread on the protective film and the process solvent is evaporated. Then, the adhesive surface of the donor layer is covered with the membrane. The membrane used is a dialysis tube made of regenerated cellulose (ZelluTrans, from Roth, 46 mm flat width), which has been cut open lengthwise. The acceptor layer is produced analogously to the donor layer without active substance and is applied to the other side of the membrane. The laminates produced in this way are then stored at room temperature for 7 days, during which diffusion of the active substance through the membrane into the acceptor layer occurs. Subsequently, the active substance concentration in the donor layer is determined. For this purpose, aliquots of approx. 1 cm^2 are punched using a punching tool with a standardised surface area. The membrane is then removed, the punched pieces without membrane are weighed, and their weight is documented (m1). Then, the punched pieces are placed in organic solvent to dissolve the matrices. The backing layers are removed, washed and dried and their weight (m2) is determined. From both measured values, the weight of the polymer portion of the […] m3 is obtained as follows: m3=m1−m2 Subsequently, the concentration of phenprocoumon is determined in the solution using HPLC, and its concentration in the donor layer is calculated. The saturation concentrations of phenprocoumon in different polymer matrices determined according to this experimental approach are summarised in Table 1: […]

[2] = Solubility of phenprocoumon in process solvents; format: physicochemical
Method: Since toluene polysiloxane solution is not commercially available, BIO PSA 4201 from Dow Chemicals (polysiloxane in n-heptane) was used as starting material. The solvent was evaporated off and the rubbery polymeric residue was dissolved with enough toluene to obtain a solution with approx. 75% solids.

[3] = once absorbed by the body; cited from earlier work

CCC(c1ccccc1)c1c(O)c2ccccc2oc1=O (stereo not drawn) [phenprocoumon, Phenprocoumon]
Cs of phenprocoumon ([1]; in acrylate copolymer of 2-ethylhexyl acrylate, vinyl acetate and 2-hydroxyl ethyl acrylate, ethyl acetate): 6.11%
Cs of phenprocoumon ([1]; in acrylic copolymer of 2-ethylhexyl acrylate, butyl acrylate, vinyl acetate, acrylic acid, ethyl acetate): 7.26%
saturation concentration Cs of phenprocoumon ([1]; in neutral polymers (text summary of Table 1)): > 5%
Cs of phenprocoumon ([1]; in polyisobutylene, polymer dissolved in toluene): 2.8%
Cs of phenprocoumon ([1]; in polysiloxane, ethyl acetate): 0.3%
Cs of phenprocoumon ([1]; in styrene-isoprene-styrene block copolymer, polymer dissolved in toluene): 3.9%
solubility ([2]; in aromatic hydrocarbons): sufficiently soluble
solubility ([2]; in n-heptane): not in n-heptane
biological half-life [3]: up to 160 hours
